In the supplement of paper PMC11208160:

assay: recombinant UMI read abundance after kanamycin selection (control-corrected) (log10(CPM+1)); higher = more efficient recombination; extreme values may be limits of the assay; sequences stand for … in AGTGCAGAGAAAATCGGCCAGTTTTCTCTGCCTGCAGTCCGCATGCCGTGGGACCCCTTGGGTTCTAACCTGTTGCCTAGATTTATGCAGCGGACTGCCTTTCTCCCAAAGTGATAAACCGG…AGGTTGGTTTCACT; site = the 11-nt donor
Description: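 Pooled E. coli donor-specificity screen for the IS621 bridge recombinase. Each library member carries a reprogrammed 11-nt donor and a full-length LE bridge RNA expressed in cis from the natural promoter, with a paired donor-binding loop (8-nt LDG + 4-nt RDG) and a target-binding loop fixed to T5. It is co-electroporated with a T5 target plasmid; recombinase is induced with 0.07 mM IPTG and recombinants are selected on kanamycin. UMIs are counted as CPM, averaged over two biological replicates and corrected by the unselected control. Molecule = full bridge RNA written as DNA, built from the T5 scaffold: LDG = donor specificity nt 1-8, RDG = reverse complement of nt 8-11.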
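Further: IS621 bridge recombinase in Escherichia coli cells against a fixed T5 target plasmid.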

Row | Sequence | recombinant UMI read abundance (log10)
1 | AACTAGCCATGGACCGGTTTTCCCGGTAATCCGTATTTGCG (site AACTAGCCTCG) | 0.00356
2 | AACTATACATGGACCGGTTTTCCCGGTAATCCGTATTTGAC (site AACTATACTGT) | 2.31
3 | AACTATACATGGACCGGTTTTCCCGGTAATCCGTATTTGAC (site ACCTATACTGT) | 0.367
4 | AACTATACATGGACCGGTTTTCCCGGTAATCCGTATTTGAC (site AGCTATACTGT) | 0.797
5 | AACTATACATGGACCGGTTTTCCCGGTAATCCGTATTTGAC (site ATCTATACTGT) | 1.94
6 | AACTATGCATGGACCGGTTTTCCCGGTAATCCGTATTTGGA (site AAATATGCTTC) | 0.502
7 | AACTATGCATGGACCGGTTTTCCCGGTAATCCGTATTTGGA (site AACTATGCTTC) | 1.22
8 | AACTATGCATGGACCGGTTTTCCCGGTAATCCGTATTTGGA (site AAGTATGCTTC) | 0.552
9 | AACTATGCATGGACCGGTTTTCCCGGTAATCCGTATTTGGA (site AATTATGCTTC) | 0.908
10 | AACTATTCATGGACCGGTTTTCCCGGTAATCCGTATTTGCG (site AACTATTCTCG) | 2.02
11 | AACTGGACATGGACCGGTTTTCCCGGTAATCCGTATTTGGG (site AACTGGACTCC) | 0.0254
12 | AACTTGACATGGACCGGTTTTCCCGGTAATCCGTATTTGAC (site AACTTGACTGT) | 0
13 | AACTTGTCATGGACCGGTTTTCCCGGTAATCCGTATTTGGC (site AACTTGTCTGC) | 0
14 | AAGAACACATGGACCGGTTTTCCCGGTAATCCGTATTTGCA (site AAGAACACTTG) | 2.85
15 | AAGAACACATGGACCGGTTTTCCCGGTAATCCGTATTTGCA (site AGGAAGACTTG) | 0
16 | AAGAAGACATGGACCGGTTTTCCCGGTAATCCGTATTTGAA (site AAGAAGACTTT) | 2.39
17 | AAGAAGACATGGACCGGTTTTCCCGGTAATCCGTATTTGAA (site AGGAAGACTTG) | 0
18 | AAGAAGTCATGGACCGGTTTTCCCGGTAATCCGTATTTGTA (site AAGAAGTCTTA) | 3.3
19 | AAGAGGACATGGACCGGTTTTCCCGGTAATCCGTATTTGCA (site AAGAGGACTTG) | 2.65

Row | Sequence | recombinant UMI read abundance (log10)
20 | AAGAGGACATGGACCGGTTTTCCCGGTAATCCGTATTTGCA (site AGGAAGACTTG) | 1.62
21 | AAGCAAGCATGGACCGGTTTTCCCGGTAATCCGTATTTGGG (site AAGCAAGCTCC) | 0.623
22 | AAGCAAGCATGGACCGGTTTTCCCGGTAATCCGTATTTGGG (site AAGCACGCTCC) | 0.0526
23 | AAGCAAGCATGGACCGGTTTTCCCGGTAATCCGTATTTGGG (site AAGCAGGCTCC) | 0
24 | AAGCAAGCATGGACCGGTTTTCCCGGTAATCCGTATTTGGG (site AAGCATGCTCC) | 0.0463
25 | AAGCACACATGGACCGGTTTTCCCGGTAATCCGTATTTGGG (site AAGCACACTCC) | 0.242
26 | AAGCACACATGGACCGGTTTTCCCGGTAATCCGTATTTGGG (site AAGCACCCTCC) | 0.0138
27 | AAGCACACATGGACCGGTTTTCCCGGTAATCCGTATTTGGG (site AAGCACGCTCC) | 0.0056
28 | AAGCACACATGGACCGGTTTTCCCGGTAATCCGTATTTGGG (site AAGCACTCTCC) | 0.222
29 | AAGCACTCATGGACCGGTTTTCCCGGTAATCCGTATTTGGG (site AAGCACACTCC) | 0.0075
30 | AAGCACTCATGGACCGGTTTTCCCGGTAATCCGTATTTGGG (site AAGCACCCTCC) | 0.00615
31 | AAGCACTCATGGACCGGTTTTCCCGGTAATCCGTATTTGGG (site AAGCACGCTCC) | 0.0931
32 | AAGCACTCATGGACCGGTTTTCCCGGTAATCCGTATTTGGG (site AAGCACTCTCC) | 1.57
33 | AAGCCTGCATGGACCGGTTTTCCCGGTAATCCGTATTTGTA (site AAGCCTGCTTA) | 0.811
34 | AAGCGCGCATGGACCGGTTTTCCCGGTAATCCGTATTTGGG (site AAGCACGCTCC) | 0.0182
35 | AAGCGCGCATGGACCGGTTTTCCCGGTAATCCGTATTTGGG (site AAGCCCGCTCC) | 0.0103
36 | AAGCGCGCATGGACCGGTTTTCCCGGTAATCCGTATTTGGG (site AAGCGCGCTCC) | 0.214
37 | AAGCGCGCATGGACCGGTTTTCCCGGTAATCCGTATTTGGG (site AAGCTCGCTCC) | 0.0124
38 | AAGCGTCCATGGACCGGTTTTCCCGGTAATCCGTATTTGAT (site AAACGTCCTAT) | 0.245

Row | Sequence | recombinant UMI read abundance (log10)
39 | AAGCGTCCATGGACCGGTTTTCCCGGTAATCCGTATTTGAT (site AACCGTCCTAT) | 0.281
40 | AAGCGTCCATGGACCGGTTTTCCCGGTAATCCGTATTTGAT (site AAGCGTCCTAT) | 1.17
41 | AAGCGTCCATGGACCGGTTTTCCCGGTAATCCGTATTTGAT (site AATCGTCCTAT) | 0.017
42 | AAGCTAGCATGGACCGGTTTTCCCGGTAATCCGTATTTGAA (site AAGCTAGCTTT) | 2.09
43 | AAGCTAGCATGGACCGGTTTTCCCGGTAATCCGTATTTGAA (site CAGCTAGCTTT) | 1.37
44 | AAGCTAGCATGGACCGGTTTTCCCGGTAATCCGTATTTGAA (site GAGCTAGCTTT) | 0.00246
45 | AAGCTAGCATGGACCGGTTTTCCCGGTAATCCGTATTTGAA (site TAGCTAGCTTT) | 1.48
46 | AAGCTCGCATGGACCGGTTTTCCCGGTAATCCGTATTTGGG (site AAGCACGCTCC) | 0.0201
47 | AAGCTCGCATGGACCGGTTTTCCCGGTAATCCGTATTTGGG (site AAGCCCGCTCC) | 0.0313
48 | AAGCTCGCATGGACCGGTTTTCCCGGTAATCCGTATTTGGG (site AAGCGCGCTCC) | 0.0107
49 | AAGCTCGCATGGACCGGTTTTCCCGGTAATCCGTATTTGGG (site AAGCTCGCTCC) | 0.0176
50 | AAGGATCCATGGACCGGTTTTCCCGGTAATCCGTATTTGTT (site AAGGATCCTAA) | 1.19
51 | AAGGGCTCATGGACCGGTTTTCCCGGTAATCCGTATTTGGA (site AAGGGCTCTTC) | 1.96
52 | AAGGTAACATGGACCGGTTTTCCCGGTAATCCGTATTTGCT (site AAAGTAACTAG) | 2.59
53 | AAGGTAACATGGACCGGTTTTCCCGGTAATCCGTATTTGCT (site AACGTAACTAG) | 0.731
54 | AAGGTAACATGGACCGGTTTTCCCGGTAATCCGTATTTGCT (site AAGGTAACTAG) | 2.73
55 | AAGGTAACATGGACCGGTTTTCCCGGTAATCCGTATTTGCT (site AATGTAACTAG) | 1.43
56 | AAGGTTACATGGACCGGTTTTCCCGGTAATCCGTATTTGAA (site AAGGTTACTTT) | 2.53
57 | AAGTAGGCATGGACCGGTTTTCCCGGTAATCCGTATTTGCA (site AAGTAGGCTTG) | 2.63
